Assay results as given in article PMC8963105, “A Novel Modulator of the Renin–Angiotensin System, Benzoylaconitine, Attenuates Hypertension by Targeting ACE/ACE2 in Enhancing Vasodilation and Alleviating Vascular Inflammation” (Frontiers in Pharmacology, 2022).
pEC50: −log10 of the molar value.

Columns and labels:
p-IKB-α = experiment: phosphorylation of IKB-α in aorta of SHRs (Western blot); format: in vivo, rat; conditions: oral 14 days
Text: All three MDAs (BAC, BMC, and BHC) were purchased from Nature-Standard Co., Ltd. (Shanghai, China) and their purities were all over 98%. The anti-hypertensive effects of MDAs were studied in both acute and chronic experiments. The 16-week-old SHRs were used in animal experiments, and each group had six rats. In the acute experiment, drug administration was via i.v. injection. For i.v. injection, the animals were randomly assigned into four groups: vehicle (0.1% DMSO–0.9% salt solution, n = 6), low-dose group (0.6 mg kg^−1 body weight, n = 6), medium-dose group (2 mg kg^−1 body weight, n = 6), and high-dose group (6 mg kg^−1 body weight, n = 6). The drug was administered using a venous catheter. In chronic experiments, the animals were randomly assigned into five groups: vehicle (5% Tween 80–0.9% salt solution, n = 6), captopril group (5 mg kg^−1 body weight, n = 6), low-dose group (3 mg kg^−1 body weight, n = 6), medium-dose group (10 mg kg^−1 body weight, n = 6), and high-dose group (30 mg kg^−1 body weight, n = 6). Oral administration with drug or 5% Tween 80–0.9% salt solution was carried out once a day, and continued for 14 days. […] Blood pressure was recorded in real time.
(§1) The cell samples and tissue sample were collected and placed in ice rapidly. […] Protein concentration in cell lysates was measured using a Bio-Rad DC Protein Assay Kit […]. […]

hrACE2 = hrACE2 (Homo sapiens, UniProt Q9BYF1); experiment: SensoLyte390 ACE2 activity assay (enzyme kinetics, cell-free); format: biochemical; conditions: 37°C, 30 min, read-out: EC50 (ACE2 activity, excitatory effect)
Chain of hrACE2 (Q9BYF1 18-805): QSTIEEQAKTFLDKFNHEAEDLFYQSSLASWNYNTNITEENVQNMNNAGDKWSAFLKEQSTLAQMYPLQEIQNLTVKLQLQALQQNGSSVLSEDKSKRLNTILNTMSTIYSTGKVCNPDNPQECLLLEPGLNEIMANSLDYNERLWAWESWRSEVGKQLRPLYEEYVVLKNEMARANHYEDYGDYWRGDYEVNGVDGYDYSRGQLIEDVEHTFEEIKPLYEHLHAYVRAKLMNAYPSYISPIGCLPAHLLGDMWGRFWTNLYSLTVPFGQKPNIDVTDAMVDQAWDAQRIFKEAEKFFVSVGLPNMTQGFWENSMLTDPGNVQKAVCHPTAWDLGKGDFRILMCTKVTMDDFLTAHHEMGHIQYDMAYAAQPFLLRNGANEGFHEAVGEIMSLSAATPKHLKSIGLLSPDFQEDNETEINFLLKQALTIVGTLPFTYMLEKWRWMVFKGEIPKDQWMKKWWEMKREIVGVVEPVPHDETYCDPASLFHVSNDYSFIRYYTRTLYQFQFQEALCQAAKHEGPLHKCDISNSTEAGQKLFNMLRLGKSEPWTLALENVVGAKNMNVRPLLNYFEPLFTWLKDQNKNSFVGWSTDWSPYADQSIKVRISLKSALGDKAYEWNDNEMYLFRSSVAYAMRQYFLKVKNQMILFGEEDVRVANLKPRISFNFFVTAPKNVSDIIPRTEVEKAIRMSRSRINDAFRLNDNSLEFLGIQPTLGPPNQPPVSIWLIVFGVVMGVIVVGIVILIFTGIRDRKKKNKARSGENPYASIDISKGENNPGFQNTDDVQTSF
Description: ACE and ACE2 activities were measured using the ACE activity assay kit and SensoLyte390 ACE2 activity assay kit (Anaspec, Fremont, CA, United States), respectively, according to the manufacturer’s instructions with some modifications. Briefly, rhACE solution dissolved in deionized water was used for analysis. ACE activity was measured in a reaction system with 50 μl of the sample and 50 μl of the ACE substrate solution with or without BAC (10^–4 to 10^–2 μM). ACE2 activity was assayed in the same manner as ACE activity. All assays were performed every 10 s for 30 min at 37°C using a Varioskan LUX fluorescence microplate reader (Thermo Fisher Scientific, Waltham, MA, United States). The autofluorescence value in each assay was subtracted from the measured values to generate the final results. The relative fluorescence unit of each sample was normalized to the corresponding total protein concentration, which was measured using a Pierce BCA protein assay kit (Thermo Fisher Scientific).

ACE = ACE protein expression in HUVECs (Western blot, immunofluorescence); format: cell-based, human; conditions: 24 h
Text: Human umbilical vein endothelial cells (HUVECs) were isolated from umbilical cords as previously described ([Jaffe et al., 1973]). They were purchased from ATCC (cat# CRL-1444, Manassas, VA, United States) and cultured in endothelial cell medium (ECM, ScienCell, Carlsbad, CA, United States) supplemented with 5% FBS, 1% endothelial cell growth supplement, and 1% antibiotics (Sigma, St. Louis, MO, United States). Cells harvested between the third and tenth passages were used in the experiments. Cells were cultured until they were ∼80% confluent. […]
After treatment with different concentrations of BAC (Control, DMSO, 25, 50, and 100 μM, dissolved in 0.1% DMSO–DMEM) for 24 h, the cells were washed with PBS three times, fixed in 4% paraformaldehyde for 20 min, permeabilized with 0.3% Triton X-100 for 20 min, and then blocked with 5% BSA for 30 min at room temperature of 25°C. […] The samples were analyzed using a confocal laser scanning microscope (Zeiss LSM 510 META, Oberkochen, Germany).
as §1

CCN1CC2(COC)C(O)CC(OC)C34C5CC6(O)C(OC)C(O)C(O)(C5C6OC(=O)c5ccccc5)C(C(OC)C23)C14 (stereo not shown) [BAC, Benzoylaconitine]
phosphorylation of IKB-α (p-IKB-α): downregulated | pEC50 (hrACE2): 5.82 | protein expression of ACE (ACE; HUVECs, 25, 50, 100 μM): inhibit the expression of ACE | ACE protein degradation (ACE; HUVECs, BAC 100 μM with or without proteasome inhibitor MG132 20 or 40 nM): promote ACE protein degradation
